Structures can show the parent of a compound that is named as a salt. Where two headings read alike, the source gives them in different places.
How the values were obtained:
[1] = test system: apomorphine-induced hypothermia; test: Antagonism with respect to apomorphine-induced hypothermia in mice; assay type: in vivo; settings: Mus musculus, 2 h, apomorphine 1 mg.kg^-1 s.c., after 2 hours
Procedure: Testing for an antagonism with respect to apomorphine-induced hypothermia in mice was performed according to the method described by CHERMAT R. and PONCELET M. in J. Pharmac. (1983), 14, No. 1, p. 93-97. The dose of apomorphine administered subcutaneously was 1 mg.kg^-1. Tables VII and VIII show the percentage antagonism of the hypothermia observed after 2 hours.

[2] = test system: amphetamine-induced stereotypy; test: Antagonism of amphetamine-induced stereotypy in rats; assay type: in vivo; settings: 3 hours
Procedure: The inhibitory activity of the compounds of the invention with respect to apomorphine- or amphetamine-induced stereotypy in rats was assessed using the scale of scoring of stereotyped movements described by Quinton R. M. and Halliwell G. in Nature (1963), 200, p. 178-179.
Apomorphine or amphetamine was administered to the animals intraperitoneally at a dose of 1.5 mg.kg^-1. The percentage inhibition (-) or potentiation (+) of the stereotypy score (% ISS) shown in Tables IV and V for apomorphine corresponds to a measurement time of 30 minutes. In contrast, the percentage inhibition of the stereotypy score shown in Table VI for amphetamine corresponds to a measurement time of 3 hours.
(s=significant difference, p<0.05).

[3] = test system: ponto-geniculo-occipital (P.G.O.) waves induced by Ro4-1284; test: Antagonism of the ponto-geniculo-occipital (P.G.O.) waves induced by Ro4-1284; assay type: in vivo; settings: Felis catus, iv, cats, i.v., read-out: ED50 (effective dose inhibiting by 50% the number of P.G.O. waves)
Procedure: The antidepressant effects of the compounds of the invention were investigated by assessing the antagonism of reserpine-induced hypothermia and the antagonism of the ponto-geniculo-occipital waves induced by the compound Ro4-1284 in cats.
This study was performed according to the method of Ruch-Monachon M. A., Jalfre M. and Haefely W. described in Arch. Int. Pharm. Therap., (1976), 219, No. 2, p. 251-346, and it enabled the effective dose (i.v) inhibiting by 50% (ED50) the number of P.G.O waves to be assessed.

[4] = test system: apomorphine-induced rearing-up; test: Antagonism of apomorphine-induced rearing-up behavior in mice; assay type: in vivo; settings: Mus musculus, apomorphine 0.75 mg.kg^-1 s.c.
Procedure, shortened: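 Mice given compound i.p. (doses from 2.5 mg.kg^-1) or orally at 20 mg.kg^-1, then challenged with apomorphine 0.75 mg.kg^-1 s.c.; antagonism of rearing-up behavior scored per Protais et al., significance at p<0.05.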

[5] = test system: reserpine-induced hypothermia; test: Antagonism of reserpine-induced hypothermia; assay type: in vivo, Swiss CD male mice; settings: mice, reserpine 2.5 mg.kg^-1 i.p.
Procedure, shortened: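 Male Swiss CD mice (27-28 g, n=10/group) given reserpine 2.5 mg.kg^-1 i.p., then test compound i.p. 3 h later. Rectal temperature taken 1 and 2 h after compound dosing and compared with each animal's temperature just before compound administration.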

[6] = test system: aggression of isolated, bulbectomized rats; test: Antiaggressive effects: aggression of isolated, bulbectomized rats; assay type: in vivo; settings: i.p.
Procedure, shortened: (§1)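 Two paradigms: inhibition of aggressive behaviour in previously isolated mice, and in isolated, bulbectomized rats. Significance set at p<0.05.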

[7] = test system: interoceptive stimulus of apomorphine; test: Drug discrimination in rats (generalization with apomorphine); assay type: in vivo; settings: 30 minutes before test
Procedure: Rats were trained to discriminate between the effect of the interoceptive stimulus of apomorphine (0.2 mg.kg^-1 i.p.) and that of physiological saline, according to a principle described by Colpaert F. in "Drug discrimination application in C.N.S. Pharmacology" Ed. Elsevier Biomedical 1982, Amsterdam. […]
Under the experimental conditions employed, the behavior shown by the animals coincides with that noted in the case of administration of apomorphine.

[8] = test system: isolation-induced aggression; test: Antiaggressive effects: isolation-induced aggression in mice; assay type: in vivo; settings: isolated mice, i.p.
Procedure, shortened: as §1

[9] = test system: apomorphine-induced stereotypy; test: Antagonism of apomorphine-induced stereotypy in rats; assay type: in vivo; settings: Rattus norvegicus, 0.5 h, apomorphine 1.5 mg.kg^-1 i.p., 30 minutes
Procedure, shortened: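 Rats received apomorphine or amphetamine i.p. at 1.5 mg.kg^-1, and stereotyped movements were scored on the Quinton–Halliwell scale. Values are % inhibition (−) or potentiation (+) of stereotypy score, measured at 30 minutes for apomorphine and 3 hours for amphetamine.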

In the case of NC1CCc2cc3c(cc2C1)OCC3 (racemic) [Example 2, di-7-Amino-2,3,5,6,7,8-hexahydronaphtho[2,3-b]furan hydrochloride], the change in vivo at 1 mg/kg ([1]; ip, read-out: % antagonism of hypothermia, mice, i.p. dose 1) is reported as -11%, the change in vivo at 5 mg/kg ([1]; ip, read-out: % antagonism of hypothermia, mice, i.p. dose 5) is reported as -57% and the change in vivo at 10 mg/kg ([1]; ip, read-out: % antagonism of hypothermia, mice, i.p. dose 10) is reported as -54%. It also gave a change in vivo at 20 mg/kg ([1]; ip, read-out: % antagonism of hypothermia, mice, i.p. dose 20) of -80%, a change in vivo at 2.5 mg/kg ([1]; po, read-out: % antagonism of hypothermia, mice, p.o. dose 2.5) of -35% and a change in vivo at 5 mg/kg ([1]; po, read-out: % antagonism of hypothermia, mice, p.o. dose 5) of -59%. The change in vivo at 10 mg/kg ([1]; po, read-out: % antagonism of hypothermia, mice, p.o. dose 10) was -70%, the change in vivo at 20 mg/kg ([1]; po, read-out: % antagonism of hypothermia, mice, p.o. dose 20) was -86% and the “% ISS (inhibition (-) or potentiation (+) of the stereotypy score)” value ([2]; i.p. dose 5 mg.kg^-1, amphetamine 1.5 mg.kg^-1 i.p.) was “+32%”. For the same compound, the “% ISS (inhibition (-) or potentiation (+) of the stereotypy score)” value ([2]; i.p. dose 10 mg.kg^-1, amphetamine 1.5 mg.kg^-1 i.p.) was “+39%”, the ED50 [3] was 0.146 mg/kg and the change in vivo at 5 mg/kg ([4]; ip, read-out: % inhibition of rearing-up, mice, i.p. dose 5 mg.kg^-1) was -56%. It also gave a change in vivo at 10 mg/kg ([4]; ip, read-out: % inhibition of rearing-up, mice, i.p. dose 10 mg.kg^-1) of -58%, a change in vivo at 20 mg/kg ([4]; ip, read-out: % inhibition of rearing-up, mice, i.p. dose 20 mg.kg^-1) of -91% and a change in vivo at 40 mg/kg ([4]; ip, read-out: % inhibition of rearing-up, mice, i.p. dose 40 mg.kg^-1) of -100%. The change in vivo at 10 mg/kg ([4]; po, read-out: % inhibition of rearing-up, mice, p.o. dose 10 mg.kg^-1) was -77%, the change in vivo at 20 mg/kg ([4]; po, read-out: % inhibition of rearing-up, mice, p.o. dose 20 mg.kg^-1) was -100% and the “% inhibition of hypothermia” value ([5]; 2.5 mg.kg^-1 i.p.) was -62%. The “% inhibition of hypothermia” value ([5]; 5 mg.kg^-1 i.p.) was -27%, the “% inhibition of hypothermia” value ([5]; 10 mg.kg^-1 i.p.) was -32% and the “% inhibition of hypothermia” value ([5]; 20 mg.kg^-1 i.p.) was -47%. For the same compound, the “% of rats rendered non-aggressive” value ([6]; 1.25 mg.kg^-1) was 17%, the “% of rats rendered non-aggressive” value ([6]; 2.5 mg.kg^-1) was 50% and the “% of rats rendered non-aggressive” value ([6]; 5 mg.kg^-1) was 73%. The “% of rats rendered non-aggressive” value ([6]; 10 mg.kg^-1) was 17%, the “% of animals which generalize” value ([7]; 1.0 mg.kg^-1 i.p.) was 20% and the “Number of animals showing the effect of generalization with apomorphine” value (from here on “Number”) ([7]; 1.0 mg.kg^-1 i.p.) was 2/10. For the same compound, the “% of animals which generalize” value ([7]; 2.5 mg.kg^-1 i.p.) was 77%, the “Number” value ([7]; 2.5 mg.kg^-1 i.p.) was 7/9 and the “% of animals which generalize” value ([7]; 5.0 mg.kg^-1 i.p.) was 50%. The “Number” value ([7]; 5.0 mg.kg^-1 i.p.) was 2/4, the “% of pairs of mice showing no sign of fighting” value ([8]; 2.5 mg.kg^-1) was 40% and the “% of pairs of mice showing no sign of fighting” value ([8]; 5 mg.kg^-1) was 70%. For the same compound, the “% of pairs of mice showing no sign of fighting” value ([8]; 10 mg.kg^-1) was 100%, the “% of pairs of mice showing no sign of fighting” value ([8]; 20 mg.kg^-1) was 100% and the change in vivo at 5 mg/kg ([9]; ip, read-out: % ISS (inhibition (-) or potentiation (+) of the stereotypy score), rats, i.p. dose 5 mg.kg^-1) was -16%. For the same compound, the change in vivo at 10 mg/kg ([9]; ip, read-out: % ISS (inhibition (-) or potentiation (+) of the stereotypy score), rats, i.p. dose 10 mg.kg^-1) was -62%, the change in vivo at 20 mg/kg ([9]; ip, read-out: % ISS (inhibition (-) or potentiation (+) of the stereotypy score), rats, i.p. dose 20 mg.kg^-1) was -48% and the change in vivo at 10 mg/kg ([9]; po, read-out: % ISS (inhibition (-) or potentiation (+) of the stereotypy score), rats, p.o. dose 10 mg.kg^-1) was -55%. The change in vivo at 20 mg/kg ([9]; po, read-out: % ISS (inhibition (-) or potentiation (+) of the stereotypy score), rats, p.o. dose 20 mg.kg^-1) was -55%.
